Results published in patent publication US8815879B2, “Substituted 4-(selenophen-2(or-3)-ylamino)pyrimidine compounds and methods of use thereof” (Kasina Laila Innova Pharmaceuticals Private Limited, priority 2010, dated 2014).
“Also recorded” adds a separate entry of the source.

Columns and labels:
[1] = test system: HepG2 (Hepatocellular Carcinoma); assay: cells; assay type: cell-based
Method: (§1) MTT [3-(4,5-dimethylthiazol-2-yl)-2,5-diphenyltetrazolium bromide] incorporation based cell proliferation assay was performed using standard procedure. […] The assay was carried out according to the instructions provided by the vendor. […] Vehicle control culture wells received only a maximum of 0.5% DMSO. Thereafter, 0.5 mg/ml of MTT reagent was added to each well and the microplate was incubated further for 4 h at 37° C. in presence of 5% CO2. Finally, the cells were solubilized by adding solubilizing solution and allowed to incubate at 37° C. overnight. After complete solubilization of the formazan crystals the absorbance was read at 540 nm in a microplate reader (BioRad, USA).
(§2) The evaluation of cell proliferation inhibitory activities of the compounds was done in two phases—(1) Screening, and (2) half-maximal inhibitory concentration (IC50) determination. In the screening phase, the cells were treated with three different concentrations e.g. 1, 5 and 10 μg/ml.

[2] = test system: human breast carcinoma (estrogen receptor negative) MDA-MB-231 cells; assay: cells; assay type: cell-based
Method: as §1, §2

[3] = test system: human cervical carcinoma HeLa cells; assay: cells; assay type: cell-based
Method: as §1, §2

[4] = test system: Human umbilical vein endothelial cells (HUVEC); assay: In vitro endothelial capillary formation assay; assay type: cell-based; details: HUVEC on Cultrex, 10 ng/ml FGF, Compound 27 at 0.5, 1.0, 2.5 and 5 μg/ml, 16 h
Method: Human umbilical vein endothelial cells (HUVECs) were laid on Cultrex coated plates in presence of either 10 ng/ml human recombinant Fibroblast Growth Factor (FGF) alone (B) or concomitantly with Compound 27 at 0.5, 1.0, 2.5 and 5 μg/ml C, D, E, and F, respectively. The cells in presence of treatments were allowed to form endothelial capillary tubes for 16 h at 37° C. Panel A represents capillary-like endothelial tube formation in 0.1% DMSO treated vehicle control wells.
In vitro capillary formation assay was performed with Human umbilical vein endothelial cells (HUVEC), cultured on 10 mg/ml basement membrane extract (BME—Cultrex®, R&D Systems, USA) bed. Four hundred microliters of Cultrex was coated at 4° C. in each well of 24-well culture plate and allowed to gel at 37° C. for 1 h. HUVECs were plated at a density of 1×10^5 cells per well with 400 μl of EGM-2 medium (Lonza Walkersville Inc. Walkersville, Md.). The cells were then treated with either 10 ng/ml of Human recombinant Fibroblast Growth Factor (FGF, R&D Systems, Minneapolis, Minn.)) alone or concurrently with different concentrations of Compound 27 for 16 hours. Vehicle control cultures received only 0.1% DMSO. Pictures were taken under a Nikon Eclipse TS 100 microscope equipped with a Nikon Coolpix camera. […] In contrast, FGF promoted human endothelial capillary formation in vitro (FIG. 1).

[5] = test system: human lung carcinoma A549 cells; assay: MTT based cell proliferation assay, A549; details: Homo sapiens, A549, 72 h, read-out: Cell Proliferation Inhibition in A549 (Lung carcinoma), IC50
[6] = test system: human colorectal carcinoma HT29 cells; assay: MTT based cell proliferation assay, HT29; details: Homo sapiens, HT-29, 72 h, read-out: Cell Proliferation Inhibition in HT29 (Colon carcinoma), IC50
[7] = test system: human prostate DU145 cells; assay: MTT based cell proliferation assay, DU145; details: Homo sapiens, DU-145, 72 h, read-out: Cell Proliferation Inhibition in DU145 (Prostate carcinoma), IC50

COc1cc2nc(CN(C)C)nc(Nc3cc(C(C)(C)C)[se]c3C(N)=O)c2cc1OC [Compound 27]
IC50 ([1]; Homo sapiens, HepG2, MTT, read-out: Cell proliferation inhibition (IC50) in HepG2 (Hepatocellular Carcinoma)): 2340 nM | potency compared to Iressa, HepG2 ([1]; ratio of IC50 values): equally more potent than Iressa | IC50 ([2]; Homo sapiens, MDA-MB-231, MTT, read-out: Cell proliferation inhibition (IC50) in MDA-MB-231 (Breast Carcinoma)): 3090 nM | potency compared to Iressa, MDA-MB-231 ([2]; ratio of IC50 values): equally more potent than Iressa | IC50 ([3]; Homo sapiens, HeLa, MTT, read-out: Cell proliferation inhibition (IC50) in HeLa (Cervical Carcinoma)): 2880 nM | potency compared to Iressa, HeLa ([3]; ratio of IC50 values): equally more potent than Iressa | inhibition of FGF induced capillary-like endothelial tube formation [4]: inhibits capillary-like endothelial tube formation in vitro; also recorded: inhibited FGF induced capillary formation in a dose dependent manner | inhibition of FGF induced capillary-like endothelial tube formation ([4]; listed as compound 27): significantly inhibiting endothelial capillary formation in a dose dependent manner | IC50 [5]: 3580 nM | IC50 [6]: 2860 nM | IC50 [7]: 2970 nM
